# Experimental data as given in patent EP4596547A1, “HETEROCYCLIC COMPOUND AND HARMFUL ARTHROPOD-CONTROLLING COMPOSITION CONTAINING SAME” (priority 2022, dated 2024).
# Experiments:
# Assay type in all cases: in vivo
# [1] = system: Western corn rootworm (Diabrotica virgifera virgifera); experiment: whole plant or invertebrate; conditions: 120 h
# Description: Each 1 mg of the test compound is dissolved in 50 µL of a mixed solution of polyoxyethylene sorbitan monococoate and acetone (5 : 95 (volume ratio)). Water containing 0.03% by volume of Shindain (registered trademark) is added thereto to prepare a diluted solution containing the test compound at a predetermined concentration.
# Young seedlings of maize (Zea mays) are immersed in the diluted solution for 30 seconds. Thereafter, the two […] are placed in a petri dish (90 mm diameter), and thereto are released 10 second instar larvae of Western corn rootworm (Diabrotica virgifera virgifera). After 5 days, the number of dead insects is counted, and the mortality is determined from the following equation. [formula]
# Musca domestica = experiment: Test method 8: container inner surface coated with test compound, Musca domestica; conditions: 24 h, 40 mg/m^2 (800 ppm acetone solution), five adult female, 1 days, 25°C
# Description: An acetone solution prepared such that the amount of the test compound is 800 ppm is poured into a container having an internal volume of 20 mL, and the inner surface of the container is uniformly coated such that the amount of the test compound is 40 mg/m^2, and then dried.
# Five adult female Musca domestica are placed in the container, and the lid is closed. After a lapse of a predetermined time, the state of Musca domestica is examined, and the mortality is determined. The mortality is calculated by the following equation. [formula]
# [2] = system: cotton aphids (Aphis gossypii); experiment: Test method 11: foliar spray on cucumber seedlings inoculated with cotton aphids (formulation per Formulation Example 5); conditions: 120 h, sprayed 10 mL/seedling one day after inoculation, after 5 days, 25°C, read-out: control value
# [3] = system: cotton aphids (Aphis gossypii); experiment: Test method 1: foliar spray on cucumber seedlings inoculated with cotton aphids (formulation per Formulation Example 1); conditions: 120 h, 500 ppm, sprayed 10 mL/seedling one day after inoculation, surviving insects examined after 5 days, 25°C, read-out: control value
# [4] = system: diamondback moth (Plutella xylostella); experiment: Test method 4: sprayed cabbage foliage cut out, second instar larvae of diamondback moth released; conditions: foliar, 120 h, sprayed 20 mL/seedling, five second instar larvae, after 5 days, 25°C
# Description: (§1) A test compound is formed into a formulation according to the method described in Formulation Example 1, and water containing 0.03% by volume of Shindain (registered trademark) is added thereto to prepare a diluted solution containing the test compound at a predetermined concentration.
# (§2) A cabbage (Brassicae oleracea) seedling (2 to 3 true leaf stage) planted in a container is sprayed with the diluted solution at a rate of 20 mL/seedling. Thereafter, the foliage portion of the seedling is cut out and placed in a container on which filter paper is laid. Thereto are released five second instar larvae of diamondback moth (Plutella xylostella). After 5 days, the number of surviving insects is counted, and the mortality is determined from the following equation. [formula]
# Culex pipiens pallens = experiment: Test method 12: last-instar larvae of Culex pipiens pallens released into diluted solution; conditions: 24 h, 30 last-instar larvae, one day later, 25°C
# Description: The test compound is formulated according to the method described in Formulation Example 1, and water is added thereto to prepare a diluted solution containing the test compound at a predetermined concentration. 30 last-instar larvae of Culex pipiens pallens are released into the diluted solution, and the state of the larvae of Culex pipiens is examined one day later to determine the Mortality. The mortality is calculated by the following equation. [formula]
# Aphis gossypii = experiment: Test method 2: soil irrigation of cucumber seedlings, later inoculated with Aphis gossypii; conditions: 144 h, irrigated 5 mL/seedling, inoculated after 7 days, surviving insects examined after 6 days, 25°C, read-out: control value
# Description: The test compound is formulated according to the method described in Formulation Example 5, and water is added thereto to prepare a diluted solution containing the test compound at a predetermined concentration. A cucumber (Cucumis sativus) seedling (second true leaf stage) planted in a container is irrigated with the diluted solution at a rate of 5 mL/seedling. After 7 days, the leaf surface of this seedling is inoculated with about 30 Aphis gossypii (whole stage). After 6 days, the number of surviving insects is examined, and the control value is determined by the following formula. [formula] • Characters in the formula represent the following meanings. • Cb: number of test insects in a non-treated section • Cai: number of surviving insects in a non-treated section at the time of investigation • Tb: number of test insects in a treated section • Tai: number of surviving insects in a treated section at the time of investigation Herein, the non-treated section means a section that is subjected to the same operation as that of the treated section except that the test compound is not used.
# [5] = system: diamondback moth (Plutella xylostella); experiment: Test method 10: sprayed cabbage seedling, third instar larvae of diamondback moth released; conditions: 144 h, sprayed 20 mL/seedling, 10 third instar larvae, after 6 days, 25°C
# Description: (§3) A test compound is formed into a formulation according to the method described in Formulation Example 5, and water containing 0.03% by volume of Shindain (registered trademark) is added thereto to prepare a diluted solution containing the test compound at a predetermined concentration.
# (§4) A cabbage (Brassicae oleracea) seedling (3 to 4 true leaf stage) planted in a container is sprayed with the diluted solution at a rate of 20 mL/seedling. Thereafter, 10 third instar larvae of diamondback moth (Plutella xylostella) are released. After 6 days, the number of surviving insects is counted, and the mortality is determined from the following equation. [formula]
# [6] = system: common cutworm (Spodoptera litura); experiment: Test method 3: sprayed cabbage foliage cut out, second instar larvae of common cutworm released; conditions: foliar, 120 h, sprayed 20 mL/seedling, five second instar larvae, after 5 days, 25°C
# Description: as §1
# as §2, with “common cutworm (Spodoptera litura).” for “diamondback moth (Plutella xylostella).”
# [7] = system: common cutworm (Spodoptera litura); experiment: Test method 9: sprayed cabbage seedling, third instar larvae of common cutworm released; conditions: 144 h
# Description: as §3
# as §4, with “common cutworm (Spodoptera litura)” for “diamondback moth (Plutella xylostella)”
# Blattella germanica = experiment: Test method 6: container inner surface coated with test compound, Blattella germanica; conditions: 72 h
# Description: An acetone solution prepared such that the amount of the test compound is 800 ppm is poured into a container having an internal volume of 50 mL, and the inner surface of the container is uniformly coated such that the amount of the test compound is 40 mg/m^2, and then dried.
# Five male imagoes of Blattella germanica are placed in the container, and the lid is closed. After a lapse of a predetermined time, the state of Blattella germanica is examined, and the mortality is determined. The mortality is calculated by the following equation. [formula]
# [8] = system: Haemaphysalis longicornis; experiment: Test method 7: container inner surface coated with test compound, Haemaphysalis longicornis nymphs; conditions: 48 h, 100 mg/m^2 (2000 ppm acetone solution), five nymphs, 2 days, 25°C
# Description: An acetone solution prepared such that the amount of the test compound is 2000 ppm is poured into a container having an internal volume of 20 mL, and the inner surface of the container is uniformly coated such that the amount of the test compound is 100 mg/m^2, and then dried.
# Five nymphs of Haemaphysalis longicornis are placed in the container, and the lid is closed. After a lapse of a predetermined time, the state of Haemaphysalis longicornis is examined to determine the mortality. The mortality is calculated by the following equation. [formula]
structure (smiles),measurement,setting,value
CCS(=O)(=O)c1c(N(C)C(=O)c2cc(C(F)(F)F)n(C)n2)nc2ccc(I)cn12 [compound 52],mortality at 200 ppm,[1],≥ 80%
same,"mortality at 40 mg/m2, 40 mg/m2",Musca domestica,≥ 80%
same,mortality at 50 ppm,[2],≥ 90%
same,mortality at 200 ppm,[2],≥ 90%
same,mortality at 500 ppm,[3],≥ 90%
same,mortality at 500 ppm,[4],≥ 80%
same,mortality at 3.5 ppm,Culex pipiens pallens,> 90%
same,mortality at 1000 ppm,Aphis gossypii,≥ 90%
same,mortality at 50 ppm,[5],≥ 80%
same,mortality at 200 ppm,[5],≥ 80%
CCSc1c(N(C)C(=O)c2ccc(C(F)(F)F)s2)nc2ccc(I)cn12 [compound 6],mortality at 500 ppm,[6],≥ 80%
same,"mortality at 40 mg/m2, 40 mg/m2",Musca domestica,≥ 80%
same,mortality at 50 ppm,[2],≥ 90%
same,mortality at 200 ppm,[2],≥ 90%
same,mortality at 500 ppm,[3],≥ 90%
same,mortality at 500 ppm,[4],≥ 80%
same,mortality at 3.5 ppm,Culex pipiens pallens,> 90%
same,mortality at 200 ppm,[5],≥ 80%
CCS(=O)(=O)c1c(N(C)C(=O)c2cnc(C(F)(F)F)s2)nc2ccc(I)cn12 [compound 40],mortality at 500 ppm,[6],≥ 80%
same,mortality at 50 ppm,[2],≥ 90%
same,mortality at 200 ppm,[2],≥ 90%
same,mortality at 500 ppm,[3],≥ 90%
same,mortality at 500 ppm,[4],≥ 80%
same,mortality at 3.5 ppm,Culex pipiens pallens,> 90%
same,mortality at 1000 ppm,Aphis gossypii,≥ 90%
same,mortality at 50 ppm,[5],≥ 80%
same,mortality at 200 ppm,[5],≥ 80%
CCSc1c(N(C)C(=O)c2cnn(C(F)(F)F)c2)nc2ccc(I)cn12 [compound 23],mortality at 200 ppm,[7],≥ 80%
same,mortality at 200 ppm,[2],≥ 90%
same,mortality at 500 ppm,[3],≥ 90%
same,mortality at 500 ppm,[4],≥ 80%
same,mortality at 3.5 ppm,Culex pipiens pallens,> 90%
same,"mortality at 40 mg/m2, 40 mg/m2",Blattella germanica,≥ 80%
CC[S+]([O-])c1c(N(C)C(=O)c2cnc(C(F)(F)F)s2)nc2cc(I)ccn12 (stereo not shown) [compound 45],mortality at 50 ppm,[2],≥ 90%
same,mortality at 200 ppm,[2],≥ 90%
same,mortality at 500 ppm,[3],≥ 90%
same,"mortality at 100 mg/m2, 100 mg/m2",[8],≥ 80%
same,mortality at 3.5 ppm,Culex pipiens pallens,> 90%
CCS(=O)(=O)c1c(N(C)C(=O)c2cnc(C(F)(F)F)s2)nc2cc(Br)ccn12 [compound 48],mortality at 500 ppm,[6],≥ 80%
same,mortality at 50 ppm,[2],≥ 90%
same,mortality at 200 ppm,[2],≥ 90%
same,mortality at 500 ppm,[3],≥ 90%
same,mortality at 500 ppm,[4],≥ 80%
same,mortality at 3.5 ppm,Culex pipiens pallens,> 90%
same,mortality at 200 ppm,[5],≥ 80%
CCSc1c(N(C)C(=O)c2cc(C(F)(F)F)n(C)n2)nc2ccc(I)cn12 [compound 16],mortality at 500 ppm,[6],≥ 80%
same,"mortality at 40 mg/m2, 40 mg/m2",Musca domestica,≥ 80%
same,mortality at 200 ppm,[2],≥ 90%
same,mortality at 500 ppm,[3],≥ 90%
same,mortality at 500 ppm,[4],≥ 80%
same,mortality at 3.5 ppm,Culex pipiens pallens,> 90%
same,mortality at 1000 ppm,Aphis gossypii,≥ 90%
